These results are taken from publication PMC3773999 (Bioorganic & medicinal chemistry, 2013).

One assay addresses hMC4R (Homo sapiens, UniProt P32245). The following applies: saturation binding, Figure 2.
In the next assay the test system is melanocortin receptors. As to conditions: ref [28]; cited from earlier work.

Sequence of hMC4R (P32245 whole entry): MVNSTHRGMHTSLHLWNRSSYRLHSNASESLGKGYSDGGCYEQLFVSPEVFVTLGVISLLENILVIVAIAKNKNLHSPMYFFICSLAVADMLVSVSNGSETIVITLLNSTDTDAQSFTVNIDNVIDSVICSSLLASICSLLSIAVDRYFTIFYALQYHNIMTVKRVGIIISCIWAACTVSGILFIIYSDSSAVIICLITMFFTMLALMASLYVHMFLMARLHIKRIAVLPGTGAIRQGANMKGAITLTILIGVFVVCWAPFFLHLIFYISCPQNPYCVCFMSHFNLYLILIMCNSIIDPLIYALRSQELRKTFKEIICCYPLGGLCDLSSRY

In the case of `N=C(N)NCCC[C@H](NC(=O)[C@@H](Cc1ccccc1)NC(=O)[C@H](Cc1c[nH]cn1)NC(=O)COCC(=O)NCCCOCCOCCOCCCNC(=O)CN(CCN(CCN(CC(=O)O)CC(=O)O)CC(=O)O)CC(=O)O)C(=O)N[C@@H](Cc1c[nH]c2ccccc12)C(N)=O` [Probe 2, Eu-DTPA-PEGO-MSH(4)], the “non-specific binding relative to probes 3 and 4” value on hMC4R amounted to 20%.
On to “Ac-Ser-Tyr-Ser-Nle-Glu-His-DPhe-Arg-Trp-Gly-Lys-Pro-Val-NH2 [NDP-α-MSH]”, for which, in the assay with melanocortin receptors, the off-rate entry is “approximately eight”.
